# Measurements reported in US20250360171A1, “CHEMOGENETICALLY GATED ION CHANNELS AND USE THEREOF” (TECHNION RESEARCH & DEVELOPMENT FOUNDATION LIMITED, priority 2023, published 2025).
# Legend:
# [1] = test system: CMs engineered to express the compound channel; assay: Coculture model: engineered CCS between two wild-type CCSs, reentrant arrhythmia; assay type: cell-based, human; settings: 5 nM
# Excerpt: (§1) To further illustrate the potential of this technology a coculture model of wild type CMs and CMs engineered to express the compound channel was generated (FIG. 8). In this model, only the CMs in the CCS between the two wild-type CCSs express the compound channel that is responsive to CNO. Reentrant arrhythmias were induced that spanned the whole model. […] As such, the arrhythmia became relegated to a single side of the model. That is an arrhythmia with a core in one CCS (for example the right one) become relegate to just that CCS upon application of CNO, while the other (left) CCS remained unaffected. It was further shown that the left CCS could be electrically paced, and conduction was successful until the wave front reaches the unexcitable engineered CMs. […] Thus, it is clear that native CMs are unaffected by CNO, but the genetically engineered CMs can be robustly ‘silenced’ by the application of CNO at very low concentrations (2-5 nM). Further, arrhythmias are succinctly terminated as a result of this silencing. Upon washout normal electrical activity resumed in the engineered CMs.
# [2] = test system: cardiac cell sheets expressing SthK and Rm3D; assay: Reentrant arrhythmia in cardiac cell sheets expressing SthK and Rm3D, optical mapping; assay type: cell-based, human
# Excerpt: In order to express both the DREADD and the channel in the membrane of cardiomyocytes a vector encoding a single transcript was generated. The open reading frame for SthK was cloned downstream of the chicken B-actin promoter. Instead of a stop codon, at the end of SthK a P2A cleavable peptide was encoded followed by the Rm3D receptor in frame. The result is a reading frame (SEQ ID NO: 4) encoding an 874 amino acid construct (SEQ ID NO: 8) that is co-translationally cleaved near the end of the P2A peptide to produce separate SthK and Rm3D proteins from a single transcript.
# Cardiac cell sheets (CCSs) were generated as a 2D tissue model from the transfected iPSC-CMs and the CCSs were loaded with an optical voltage-dependent dye and mapped using a high-speed EMCCD camera. […] Reentrant arrhythmias were induced by transient tachypacing, and the resultant arrhythmias were stable within the tissue (FIG. 7A). […] This was seen as an inability to excite the cells even with significant electrical stimulation. […] Furthermore, it was shown that a single washout of the drug led to rapid recovery of electrical excitability by electrical pacing (within 30-90 seconds of washout) and the spontaneous resumption of a normal rhythm (sinus) within 2-5 minutes, as would be expected after defibrillation/cardioversion (FIG. 7C). Thus, the arrythmias were successfully terminated upon application of CNO, and normal electrical activity returned almost immediately after washout.
# native CMs = assay: Coculture model: native (wild type) CMs; assay type: cell-based, human; settings: 2-5 nM
# Excerpt: as §1
# [3] = test system: control unmodified hiPSC-CMs; assay: Patch-clamp of control unmodified hiPSC-CMs; assay type: cell-based, human
# Experimental: At higher doses (10 nM), spontaneous generation of action potentials (Aps) ceased (FIG. 2B). This suppression of excitability likely results from the significant membrane diastolic depolarization (−64±7 mV to −10±4 mV; p<0.0001; FIG. 2C) due to the large Varenicline-induced inward current (−6.8±3.2 pA/pF; p<0.01; FIG. 2C).
# [4] = test system: control, non-transfected, hiPSC-CCSs; assay: Optical mapping of control, non-transfected hiPSC-CCSs; assay type: cell-based, human; settings: any dose
# [5] = test system: PSAM4-5HT3-hiPSC-CMs / control hiPSC-CMs co-culture; assay: Co-culture of PSAM4-5HT3-cGFP-hiPSC-CMs beside control hiPSC-CMs, optical mapping; assay type: cell-based, human
# Experimental: We next created a co-culture model where the PSAM4-5HT3-cGFP-hiPSC-CMs were seeded beside control hiPSC-CMs (FIG. 4A).
# Next, it was tested whether this chemogenetic approach could suppress tissue automaticity and excitability when using higher concentrations of Varenicline (100 nM), as it did in single cells, albeit at lower concentration. This dosing discrepancy probably stems from the more limited drug diffusion and the presence of stronger electrotonic coupling (attenuating Varenicline-induced depolarization) at the tissue level.
# PSAM4-5HT3-HC channel = target: T1, PSAM4-5HT3-HC channel (Homo sapiens, UniProt P36544, L131G/M226I/Q139L/T225I/Y217F); assay: Voltage-clamp / membrane potential recordings of PSAM4-5HT3-HC-expressing hiPSC-CMs; assay type: cell-based; settings: for effect on Varenicline-induced depolarizing current: picrotoxin 100 uM, partial antagonist of 5HT3-IPD
# T1 construct: expressed in transfected cells
# Excerpt: The synthetic chemogenetic channel PSAM4-5HT3-HC was created by fusing a mutated α7-nicotinic acetylcholine receptor (PSAM4, engineered to bind the anti-smoking drug Varenicline at sub-therapeutic concentrations) with the ion pore-domain (IPD) of the serotonin receptor 3A (5HT3) with additional mutations made for high conductance (HC) (SEQ ID NO: 12). This molecule was disclosed in Magnus, et al., “Ultrapotent chemogenetics for research and potential clinical applications”, Science, 2019 April 12;364 (6436), hercin incorporated by reference in its entirety. This molecule has only ever been used in neurons; however, it was hypothesized that it could also be employed in other electrically active cells. Specifically, it was hypothesized that expressing this chemogenetic channel in cardiomyocytes would permit dose-dependent modulation of their excitable properties; with weak depolarizing currents leading to increased automaticity, and larger currents causing depolarization-induced electrical silencing.
# To test these hypotheses, healthy-donor human induced pluripotent stem cells (hiPSCs) were transfected with a non-viral, randomly integrating, transposon to create a stably engineered line constitutively expressing the PSAM4-5HT3-HC channel together with cGFP (FIG. 1).
# [6] = test system: rat hearts transplanted with chemogenetic hiPSC-CMs; assay: Optical mapping of Langendorff-perfused rat hearts engrafted with chemogenetic hiPSC-CMs; assay type: in vivo; settings: 30 nM, adenosine-induced bradycardia, 7-10 days after transplantation, ex-vivo perfusion
# Excerpt: (§2) Finally, chemogenetic hiPSC-CMs were transplanted into rat hearts. After 7-10 days, hearts were harvested, perfused ex-vivo using a custom-made Langendorff apparatus and optically mapped. Bradycardia was induced using adenosine.
# PSAM4-5HT3-hiPSC-CCS = assay: Optical mapping of PSAM4-5HT3-hiPSC-CCS tissue model; assay type: cell-based, human; settings: 5-30 nM
# Excerpt: To assess the translational potential of these findings, a hiPSC-derived cardiac cell-sheet (hiPSC-CCS) tissue model generated from PSAM4-5HT3-hiPSC-CMs was utilized (FIG. 3A). […] This augmented automaticity was the result of Varenicline-induced depolarizing currents in pacemaker cells driving activity of the cultures.
# [7] = test system: control (non-transplanted) rat hearts; assay: Optical mapping of Langendorff-perfused control (non-transplanted) rat hearts; assay type: in vivo; settings: four control hearts, 30 nM with adenosine
# Excerpt: as §2
# T1 sequence (P36544 with tags, fused parts or gaps L131G/Q139L/Y217F/T225I/M226I): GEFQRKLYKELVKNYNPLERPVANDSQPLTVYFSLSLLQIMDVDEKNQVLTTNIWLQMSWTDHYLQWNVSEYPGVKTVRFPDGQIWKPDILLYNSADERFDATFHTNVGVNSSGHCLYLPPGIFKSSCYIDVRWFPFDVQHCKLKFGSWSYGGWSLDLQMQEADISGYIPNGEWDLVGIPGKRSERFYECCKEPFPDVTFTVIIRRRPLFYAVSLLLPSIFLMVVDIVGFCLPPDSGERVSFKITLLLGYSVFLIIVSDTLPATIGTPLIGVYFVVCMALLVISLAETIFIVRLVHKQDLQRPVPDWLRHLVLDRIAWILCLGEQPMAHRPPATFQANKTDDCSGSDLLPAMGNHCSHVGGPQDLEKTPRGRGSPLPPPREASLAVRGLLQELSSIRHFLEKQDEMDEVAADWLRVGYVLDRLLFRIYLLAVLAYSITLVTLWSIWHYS
compound,measurement,setting,value
"C[N+]1([O-])CCN(C2=Nc3cc(Cl)ccc3Nc3ccccc32)CC1 [CNO, clozapine-N-oxide]",conduction of arrhythmia across engineered cells,[1],could no longer cross the engineered cells
same,electrical activity of the CCS,[2]; 2-5 nM,rapid inactivation (silencing)
same,termination of existing reentrant arrhythmias,[2]; 2-5 nM,sufficient to completely terminate existing arrhythmias
same,time to recovery of electrical excitability by electrical pacing after washout,[2]; single washout,30 to 90 s
same,time to spontaneous resumption of a normal rhythm (sinus) after washout,[2]; single washout,2 to 5 min
same,effect on native CMs,native CMs,unaffected
c1cnc2cc3c(cc2n1)[C@@H]1CNC[C@H]3C1 [Varenicline],response to Varenicline,[3],No response
same,chronotropic effects,[4],no chronotropic effects
same,excitability of the region containing non-transfected cells,[5]; 100 nM,retained its excitable properties
same,spontaneous activity of the co-cultures,[5]; 100 nM,significantly slowed
same,electrical activity in the PSAM4-5HT3-hiPSC-CMs area,"[5]; 100 nM, in some specimens",complete silencing of electrical activity
same,origin of spontaneous activity (pacemaker area),[5]; baseline origin in control tissue,shifted the pacemaker area to the PSAM4-5HT3-HC tissue
same,automaticity of co-culture,[5]; escalating doses,augmented automaticity in a dose-dependent manner
same,increase of spontaneous rhythm over baseline,[5]; rhythm arising from the PSAM4-5HT3-hiPSC-CMs,> 6 fold
same,spontaneous generation of action potentials,PSAM4-5HT3-HC channel; 10 nM,ceased
same,membrane diastolic potential after Varenicline,"PSAM4-5HT3-HC channel; depolarization from −64±7 mV, p<0.0001, 10 nM (FIG. 2)",−10±4 mV
same,Varenicline-induced inward current,"PSAM4-5HT3-HC channel; p<0.01, FIG. 2C",−6.8±3.2 pA/pF
same,Varenicline-induced depolarizing currents,"PSAM4-5HT3-HC channel; voltage-clamp, even at low concentrations (1 nM)",robust Varenicline-induced depolarizing currents
same,hearts developing ectopic ventricular activity from area of cell transplantation,[6],four out of five
same,cultures' activation frequency,PSAM4-5HT3-hiPSC-CCS,dose-dependent increase
same,shift in the activation pattern,[7],did not occur
picrotoxin,effect on Varenicline-induced depolarizing current,PSAM4-5HT3-HC channel,suppressing the depolarizing current
same,effect on Varenicline-induced depolarizing current,PSAM4-5HT3-HC channel; listed as Picrotoxin,partially reversed
